# System: Human sebocytes
# Assay: Neutral fat detection (Nile red staining, fluorescence intensity) in linoleic acid-induced sebocytes
# Type: cell-based
# Details: for concentration dependence of inhibition of LA-induced lipid content: FIGS. 1-4, lactoferrin 100-400 μg/mL, peptides 25-100 μg/mL
# Method: Human sebocytes (Cat. No. 36079-01, Celprogen, Torrance, Calif., USA) were cultured in Dulbecco's Modified Eagle Medium (DMEM): Nutrient Mixture F-12 (DMEM/F12) purchased from Thermo Fisher Scientific Limited (Barrington, Ill., USA), 10% fetal bovine serum (FBS) purchased from Gibco, Grand Island, N.Y., USA and penicillin/streptomycin (100 IU/50 […]), incubated at 37° C. in the 5% CO2 atmosphere.
# Human sebocytes were implanted in 24- or 96-well plates. After 24 hours of culture, the cells were divided into a negative control group, a positive control group and an experimental group. […] The treated human sebocytes were cultured for two days. Human sebocytes were fixed with 4% formaldehyde at room temperature. After 60 minutes of fixation, the cells were washed with PBS and stained with Nile Red solution (1 μg/ml in PBS) at 37° C. for 15 minutes. Next, the cells were washed and observed under a fluorescent microscope. Fluorescence intensity is measured with fluorometer Spectra Max i3.
# [1] = FIG. 5, 0.1 mM LA + 50 μg/mL peptide
# [2] = FIG. 5, 0.1 mM LA + 50 μg/mL peptide, negative control about 1.0, positive control about 2.5
# [3] = FIGS. 2-4, 0.1 mM LA + 25 to 100 μg/mL peptide
# [4] = FIGS. 2-4 D, 0.1 mM LA + 25 μg/mL peptide, two days, negative control about 1.0
# [5] = FIGS. 2-4 D, 0.1 mM LA + 50 μg/mL peptide, two days, negative control about 1.0
# [6] = FIGS. 2-4 D, 0.1 mM LA + 100 μg/mL peptide, two days, negative control about 1.0
molecule,measurement,setting,value
"CCCCC/C=C\C/C=C\CCCCCCCC(=O)O [LA, linoleic acid, reference compound]",lipid content induced by LA relative to negative control group,0.1 mM linoleic acid (LA) alone,more than 2 times
lactoferrin peptide 69-75: Derived peptide of lactoferrin comprising the amino acid sequence of SEQ ID NO: 02 (RDPYKLR; Lactoferrin derived peptide),lipid content reduced compared with positive control group (LA),[1],40%
same,"fluorescence intensity (lipid content, Nile red)",[2],about 1.5
same,concentration dependence of inhibition of LA-induced lipid content,,dose-dependent manner
same,lipid content reduced compared with positive control group (LA),[3],25%
same,"fluorescence intensity (lipid content, Nile red)",[4],about 1.5
same,"fluorescence intensity (lipid content, Nile red)",[5],about 1.5
same,"fluorescence intensity (lipid content, Nile red)",[6],about 1.5
lactoferrin peptide 85-91: Derived peptide of lactoferrin comprising the amino acid sequence of SEQ ID NO: 03 (KESPQTH; Lactoferrin derived peptide),lipid content reduced compared with positive control group (LA),[1],40%
same,"fluorescence intensity (lipid content, Nile red)",[2],about 1.5
same,concentration dependence of inhibition of LA-induced lipid content,,dose-dependent manner
same,lipid content reduced compared with positive control group (LA),[3],25%
same,"fluorescence intensity (lipid content, Nile red)",[4],about 1.5
same,"fluorescence intensity (lipid content, Nile red)",[5],about 1.5
same,"fluorescence intensity (lipid content, Nile red)",[6],about 1.5
lactoferrin peptide 695-701: Derived peptide of lactoferrin comprising the amino acid sequence of SEQ ID NO: 04 (KKCSTSP; Lactoferrin derived peptide),lipid content reduced compared with positive control group (LA),[1],40%
same,"fluorescence intensity (lipid content, Nile red)",[2],about 1.5
same,concentration dependence of inhibition of LA-induced lipid content,,dose-dependent manner
same,lipid content reduced compared with positive control group (LA),[3],25%
same,"fluorescence intensity (lipid content, Nile red)",[4],about 1.5
same,"fluorescence intensity (lipid content, Nile red)",[5],about 1.5
same,"fluorescence intensity (lipid content, Nile red)",[6],about 1.5

# From patent publication US20220362348A1, “LACTOFERRIN, DERIVED PEPTIDE THEREOF AND METHOD THEREOF FOR INHIBITING AND/OR ALLEVIATING LIPID SYNTHESIS” (RENORIGIN INNOVATION INSTITUTE CO., LTD., priority 2021, published 2022)
